Columns and labels:
[1] = test system: PANC-1 cells; assay: Cell proliferation (cell counting) after siRNA knockdown in PANC-1 cells; type: cell-based; conditions: 10 to 50 nM siRNA tested, cell number 4 days after transfection, FIG. 1
Description: (§1) 1×10^6 PANC-1 cells were plated on a 10 cm dish, and culturing was carried out in Roswell Park Memorial Institute 1640 (RPMI 1640, Sigma), to which 10% fetal bovine serum (Fetal bovine serum, FBS) and 5% L-glutamine were added, for 18 hours. Culturing conditions were 37° C. and 5% CO2 unless otherwise specified. Furthermore, 1×10^6 A549 cells were plated on a 10 cm dish, and culturing was carried out in Dulbecco's modified Eagle's medium (DMEM, Sigma), to which 10% FBS and 10% L-glutamine were added, for 18 hours. […]
(§2) In order to optimize the concentration of siRNA, a final concentration of 10 to 50 nM of GST-π siRNA or Akt siRNA was added to a dish containing PANC-1 cells or A549 cells flushed with 10 mL of PTI-MEM, culturing was carried out at room temperature for 5 hours, the medium was replaced (RPMI 1640 containing 5% FBS for PANC-1 cells and DMEM containing 10% FBS for A549 cells), and culturing was carried out for 2 hours. […] Subsequently, every 24 hours, the cells were detached by treatment with trypsin and harvested from the dish, and the number of cells was counted.
(§3) In order to test the effect when GST-π siRNA and Akt siRNA are made to act at the same time, a Lipofectamine/siRNA mixed solution in which GST-π siRNA and Akt siRNA were mixed was added to each of the cells in the same way as above, and the number of cells was counted. […]

[2] = test system: A549 cells; assay: Cell proliferation (cell counting) after siRNA knockdown in A549 cells; type: cell-based; conditions: 10 to 50 nM siRNA tested, cell number 4 days after transfection, FIG. 2
Description: as §1, §2, §3

[3] = test system: PANC-1 cells; assay: Cell morphology / dead cells after siRNA knockdown in PANC-1 cells; type: cell-based; conditions: double knockdown compared with single
Description: 1×10^6 PANC-1 cells were plated on a 10 cm dish, and culturing was carried out in Roswell Park Memorial Institute 1640 (RPMI 1640, Sigma), to which 10% fetal bovine serum (Fetal bovine serum, FBS) and 5% L-glutamine were added, for 18 hours. Culturing conditions were 37° C. and 5% CO2 unless otherwise specified. Furthermore, 1×10^6 A549 cells were plated on a 10 cm dish, and culturing was carried out in Dulbecco's modified Eagle's medium (DMEM, Sigma), to which 10% FBS and 10% L-glutamine were added, for 18 hours. The respective media were replaced, and 2 hours later 20% to 30% confluent PANC-1 or A549 cells were transfected with GST-π siRNA and/or Akt siRNA using Lipofectamine RNAiMAX (Life Technologies).
A Lipofectamine/siRNA mixed solution for transfection was prepared as follows. First, 35 μL of Lipofectamine RNAiMAX and 965 μL of OPTI-MEM (Sigma) were mixed to thus prepare a Lipofectamine solution. […]
as §3

[4] = test system: PANC-1 cells; assay: Autophagy by western blot of LC3 type I/type II shift in PANC-1 cells; type: cell-based; conditions: each siRNA 10 nM, 3 days culture, FIG. 6
Description: 1×10^6 PANC-1 cells were plated on a 10 cm dish, and culturing was carried out in RPMI 1640, to which 10% FBS and 5% L-glutamine were added, for 24 hours. […] The cells on the dish were washed with ice-cooled PBS, and an ice-cooled Lysis buffer was then added to thus break the cells. The Lysis buffer was prepared by mixing 100 μL of NP-40 Alternative, PROTEIN GRADE® Detergent, 10% Solution, Sterile-Filtered (CALBIOCHEM), 500 μL of 1 M Tris-HCl (pH 7.5), 300 μL of 5 M NaCl, 20 μL of 0.5 M EDTA, and […] of sterile water. The cell lysate was collected using a cell scraper and ice-cooled for 30 minutes. During this process, inversion mixing was carried out every 10 minutes. The solution thus obtained was subjected to centrifugation at 15000 rpm and 4° C. for 15 minutes, and the supernatant was collected, thus giving a cell extract. This cell extract was subjected to western blot analysis. A reaction with a transfer membrane was carried out at 4° C. for 16 hours using anti-LC3B antibody (SIGMA) as a primary antibody. Detection of LC3 molecules was carried out using a chemiluminescent reagent after a reaction with HRP-labeled secondary antibody. Whether or not autophagy was induced was evaluated by a shift to LC3 type I (18 kDa) and type II (16 kDa).

[5] = target: Akt1 (Homo sapiens, UniProt P31749); conditions: known from literature (Barnett 2005, Lindsley 2005, Zhao 2005); cited from earlier work
[6] = target: Akt2 (Homo sapiens, UniProt P31751); conditions: known from literature (Barnett 2005, Lindsley 2005, Zhao 2005); cited from earlier work
[7] = target: Akt3 (Homo sapiens, UniProt Q9Y243); conditions: known from literature (Barnett 2005, Lindsley 2005, Zhao 2005); cited from earlier work
Akt3, sequence (Q9Y243 whole entry, species assumed): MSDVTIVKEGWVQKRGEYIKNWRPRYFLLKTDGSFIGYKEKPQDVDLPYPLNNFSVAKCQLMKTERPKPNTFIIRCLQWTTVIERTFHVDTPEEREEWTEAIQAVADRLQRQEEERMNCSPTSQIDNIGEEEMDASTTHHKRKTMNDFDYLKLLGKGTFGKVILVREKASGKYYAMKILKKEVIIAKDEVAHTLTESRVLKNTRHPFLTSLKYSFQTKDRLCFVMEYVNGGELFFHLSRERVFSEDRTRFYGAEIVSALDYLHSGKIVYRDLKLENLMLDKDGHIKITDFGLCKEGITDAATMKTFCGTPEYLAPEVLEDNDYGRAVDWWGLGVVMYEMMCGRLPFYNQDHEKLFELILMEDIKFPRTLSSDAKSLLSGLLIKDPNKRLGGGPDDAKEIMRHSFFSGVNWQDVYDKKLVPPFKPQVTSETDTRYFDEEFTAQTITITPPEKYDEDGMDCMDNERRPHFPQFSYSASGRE

Akt1, sequence (P31749 whole entry): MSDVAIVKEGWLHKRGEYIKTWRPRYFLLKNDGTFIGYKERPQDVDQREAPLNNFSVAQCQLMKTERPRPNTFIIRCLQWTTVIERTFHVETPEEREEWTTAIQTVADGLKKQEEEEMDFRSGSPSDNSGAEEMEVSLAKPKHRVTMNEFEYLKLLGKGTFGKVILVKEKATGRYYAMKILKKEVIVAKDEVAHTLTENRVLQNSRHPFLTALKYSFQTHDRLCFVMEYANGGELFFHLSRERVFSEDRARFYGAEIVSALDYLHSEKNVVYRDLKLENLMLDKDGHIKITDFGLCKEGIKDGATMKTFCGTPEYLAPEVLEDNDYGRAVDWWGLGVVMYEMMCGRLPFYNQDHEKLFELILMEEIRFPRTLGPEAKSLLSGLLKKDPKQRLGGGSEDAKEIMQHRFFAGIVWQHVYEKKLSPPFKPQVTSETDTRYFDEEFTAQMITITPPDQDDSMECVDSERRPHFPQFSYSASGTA
Akt2, sequence (P31751 whole entry, species assumed): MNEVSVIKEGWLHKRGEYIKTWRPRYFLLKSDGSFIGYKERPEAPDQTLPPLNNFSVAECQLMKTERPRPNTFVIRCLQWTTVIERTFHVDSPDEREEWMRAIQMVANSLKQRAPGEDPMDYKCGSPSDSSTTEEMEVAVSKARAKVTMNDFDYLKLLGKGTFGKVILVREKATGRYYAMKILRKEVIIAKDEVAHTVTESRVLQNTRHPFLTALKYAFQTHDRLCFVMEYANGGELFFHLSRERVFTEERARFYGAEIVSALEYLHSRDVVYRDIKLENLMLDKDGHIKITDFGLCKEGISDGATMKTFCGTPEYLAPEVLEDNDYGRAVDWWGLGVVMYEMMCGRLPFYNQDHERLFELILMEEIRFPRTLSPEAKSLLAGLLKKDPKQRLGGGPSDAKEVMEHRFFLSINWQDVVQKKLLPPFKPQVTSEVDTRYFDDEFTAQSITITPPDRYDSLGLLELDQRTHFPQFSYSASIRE

Molecule | final concentration at which the cell proliferation inhibition effect almost reaches a plateau [1] [nM] | final concentration at which the cell proliferation inhibition effect almost reaches a plateau [2] [nM] | dead cells (floating cells) [3] | autophagy (shift of LC3 type I to type II) [4] | effect on activation and phosphorylation of Akt1 [5] | effect on activation and phosphorylation of Akt2 [6] | inhibition of Akt3 [7]
GST-π siRNA: siRNA against GST-π; sense GGGAGGCAAGACCUUCAUUtt (SEQ ID No: 1), antisense AAUGAAGGUCUUGCCUCCCtg (SEQ ID No: 2) (sense GGGAGGCAAGACCUUCAUUTT; antisense AAUGAAGGUCUUGCCUCCCTG; chemistry not given here) | ~30 | ~30 | a large number of floating cells (dead cells) | autophagy induced | – | – | –
O=c1[nH]c2ccccc2n1C1CCN(Cc2ccc(-c3nc4cc5[nH]cnc5cc4nc3-c3ccccc3)cc2)CC1 [Akt Inhibitor VIII, 1,3-Dihydro-1-(1-((4-(6-phenyl-1H-imidazo[4,5-g]quinoxalin-7-yl)phenyl)methyl)-4-piperidinyl)-2H-benzimidazol-2-one] | – | – | – | – | selectively blocks activation and phosphorylation | selectively blocks activation and phosphorylation | does not inhibit

— patent publication US9914983B2, “Apoptosis-inducing agent” (Nitto Denko Corporation, priority 2012, dated 2018)
